Where “and” joins values, the source holds several entries; their conditions need not be identical. Equal values may be shown once. Toxic doses and inconclusive results are not listed. Square brackets hold non-standard residues; d marks the D form. Peptide text beside a SMILES is read from it. * marks the point of attachment. ξ: configuration not given here. ξF = NC(Cc1ccccc1)C(=O)O; Cbz = O=C(OCc1ccccc1)*
Tested on: P388 leukemia ip, CD2F1 mice, survival T/C
Test: NCI In Vivo Anticancer Drug Screen. Data for tumor model P388 Leukemia (intraperitoneal) in CD2F1 (CDF1) mice
Settings: endpoint: median survival time, higher = longer survival
How it was run: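 Mice carrying the transplanted tumor received test compound or vehicle. Survival was recorded in each group, and the value is the treated-group measurement divided by that of the vehicle-treated control group.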

[1] = dose: 100.0 mg/kg/injection, schedule: Q01DX009 (ip), vehicle: Klucel (hydroxypropylcellulose) (HPC)
[2] = dose: 200.0 mg/kg/injection, schedule: Q01DX009 (ip), vehicle: Klucel (hydroxypropylcellulose) (HPC)
[3] = dose: 50.0 mg/kg/injection, schedule: Q01DX009 (ip), vehicle: saline with Tween-80
[4] = dose: 100.0 mg/kg/injection, schedule: Q01DX009 (ip), vehicle: saline with Tween-80
[5] = dose: 200.0 mg/kg/injection, schedule: Q01DX009 (ip), vehicle: saline with Tween-80
[6] = dose: 50.0 mg/kg/injection, schedule: Q01DX005 (ip), vehicle: saline with Tween-80
[7] = dose: 100.0 mg/kg/injection, schedule: Q01DX005 (ip), vehicle: saline with Tween-80
[8] = dose: 100.0 mg/kg/injection, schedule: Q04DX002 (ip), vehicle: saline with Tween-80
[9] = dose: 200.0 mg/kg/injection, schedule: Q04DX002 (ip), vehicle: saline with Tween-80
[10] = dose: 400.0 mg/kg/injection, schedule: Q04DX002 (ip), vehicle: saline with Tween-80
[11] = dose: 60.0 mg/kg/injection, schedule: Q01DX005 (ip), vehicle: saline with Tween-80
[12] = dose: 120.0 mg/kg/injection, schedule: Q01DX005 (ip), vehicle: saline with Tween-80
[13] = dose: 100.0 mg/kg/injection, schedule: Q01DX001 (ip), vehicle: Klucel (hydroxypropylcellulose) (HPC)
[14] = dose: 200.0 mg/kg/injection, schedule: Q01DX005 (ip), vehicle: saline with Tween-80
[15] = dose: 50.0 mg/kg/injection, schedule: Q01DX005 (ip), vehicle: Klucel (hydroxypropylcellulose) (HPC)
[16] = dose: 100.0 mg/kg/injection, schedule: Q01DX005 (ip), vehicle: Klucel (hydroxypropylcellulose) (HPC)
[17] = dose: 200.0 mg/kg/injection, schedule: Q01DX005 (ip), vehicle: Klucel (hydroxypropylcellulose) (HPC)
[18] = dose: 12.5 mg/kg/injection, schedule: Q01DX009 (ip), vehicle: saline
[19] = dose: 25.0 mg/kg/injection, schedule: Q01DX009 (ip), vehicle: saline
[20] = dose: 50.0 mg/kg/injection, schedule: Q01DX009 (ip), vehicle: saline
[21] = dose: 60.0 mg/kg/injection, schedule: Q01DX005 (ip), vehicle: Klucel (hydroxypropylcellulose) (HPC)
[22] = dose: 120.0 mg/kg/injection, schedule: Q01DX005 (ip), vehicle: Klucel (hydroxypropylcellulose) (HPC)
[23] = dose: 240.0 mg/kg/injection, schedule: Q01DX005 (ip), vehicle: Klucel (hydroxypropylcellulose) (HPC)

NC(=O)C1CCCC12NC(=O)NC2=O (configuration not stated)
T/C [1]: 90 % of control
T/C [2]: 90 % of control
T/C (dose: 400.0 mg/kg/injection, schedule: Q01DX009 (ip), vehicle: Klucel (hydroxypropylcellulose) (HPC)): 100 % of control

CCn1cc(C(=O)O)c(=O)c2cnc(N3CCCC3)nc21
T/C [3]: 90 % of control
T/C [4]: 99 % of control
T/C [5]: 92 % of control

Cc1ccc(S(=O)(=O)Sc2nnnn2-c2ccccc2)cc1
T/C (dose: 50.0 mg/kg/injection, schedule: Q01DX009 (ip), vehicle: Klucel (hydroxypropylcellulose) (HPC)): 97 % of control
T/C [1]: 103 % of control
T/C [2]: 97 % of control

Cc1ccccc1N1C(=O)CSC1=S
T/C (dose: 12.5 mg/kg/injection, schedule: Q01DX009 (ip), vehicle: saline with Tween-80): 105 % of control
T/C (dose: 25.0 mg/kg/injection, schedule: Q01DX009 (ip), vehicle: saline with Tween-80): 95 % of control
T/C [3]: 105 % of control

CC(=O)Oc1cccc2c1CC(C[Se]c1ccccc1)C(=O)O2 (configuration not stated)
T/C [6]: 94 % of control
T/C [7]: 89 % of control

O=C(O)Cc1c[nH]c2cc(Cl)cc(Cl)c12
T/C [8]: 101 % of control
T/C [9]: 104 % of control
T/C [10]: 101 % of control

CC(=O)[OH+]c1c(Br)cc(Br)cc1C(=O)[O-].CC(=O)[OH+]c1c(Br)cc(Br)cc1C(=O)[O-].[Cu+2]
T/C (dose: 12.5 mg/kg/injection, schedule: Q01DX005 (ip), vehicle: saline with Tween-80): 101 % of control
T/C (dose: 25.0 mg/kg/injection, schedule: Q01DX005 (ip), vehicle: saline with Tween-80): 100 % of control
T/C (dose: 50.0 mg/kg/injection, schedule: Q01DX005 (ip), vehicle: saline): 102 % of control

Nc1nc(N)c(NS(=O)(=O)c2ccccc2)c(=O)[nH]1
T/C [11]: 108 % of control
T/C [12]: 100 % of control
T/C (dose: 240.0 mg/kg/injection, schedule: Q01DX005 (ip), vehicle: saline with Tween-80): 105 % of control

CC12C(=Nc3ccccc31)CCc1ccccc12 (configuration not stated)
T/C (dose: 50.0 mg/kg/injection, schedule: Q01DX005 (ip), vehicle: saline + Tween-80 + alcohol): 99 % of control
T/C (dose: 100.0 mg/kg/injection, schedule: Q01DX005 (ip), vehicle: saline + Tween-80 + alcohol): 100 % of control
T/C (dose: 200.0 mg/kg/injection, schedule: Q01DX005 (ip), vehicle: saline + Tween-80 + alcohol): 100 % of control

C[C@]12CCC(=O)C=C1CC[C@@H]1[C@@H]2CC[C@@]2(C)[C@H]1CCCN2CCO
T/C (dose: 25.0 mg/kg/injection, schedule: Q01DX001 (ip), vehicle: Klucel (hydroxypropylcellulose) (HPC)): 99 % of control
T/C (dose: 50.0 mg/kg/injection, schedule: Q01DX001 (ip), vehicle: Klucel (hydroxypropylcellulose) (HPC)): 103 % of control
T/C [13]: 99 % of control and 97 % of control

COc1ccc2[nH]c(=O)c(Br)c(C)c2c1
T/C [6]: 101 % of control
T/C [7]: 95 % of control
T/C [14]: 100 % of control

COc1cc(/C=C/C2=C(C)C(=O)CC(c3cc(OC)c(OC)c(OC)c3)C2C)cc(OC)c1OC (configuration not stated)
T/C (dose: 12.5 mg/kg/injection, schedule: Q04DX003 (ip), vehicle: Klucel (hydroxypropylcellulose) (HPC)): 100 % of control
T/C (dose: 25.0 mg/kg/injection, schedule: Q04DX003 (ip), vehicle: Klucel (hydroxypropylcellulose) (HPC)): 101 % of control
T/C (dose: 50.0 mg/kg/injection, schedule: Q04DX003 (ip), vehicle: Klucel (hydroxypropylcellulose) (HPC)): 97 % of control

O=c1oc(-c2cccc(-c3nc4sc5c(c4c(=O)o3)CCCC5)c2)nc2sc3c(c12)CCCC3
T/C [13]: 93 % of control
T/C (dose: 200.0 mg/kg/injection, schedule: Q01DX001 (ip), vehicle: Klucel (hydroxypropylcellulose) (HPC)): 91 % of control
T/C (dose: 400.0 mg/kg/injection, schedule: Q01DX001 (ip), vehicle: Klucel (hydroxypropylcellulose) (HPC)): 89 % of control

CCSSC1(C)C(=O)N2CCCC2C(=O)N1C (configuration not stated)
T/C (dose: 25.0 mg/kg/injection, schedule: Q04DX003 (ip), vehicle: saline): 109 % of control
T/C (dose: 50.0 mg/kg/injection, schedule: Q04DX003 (ip), vehicle: saline): 103 % of control
T/C (dose: 100.0 mg/kg/injection, schedule: Q04DX003 (ip), vehicle: saline): 104 % of control

O=C(CNC(=O)OCc1ccccc1)NC(Cc1ccccc1)C(=O)O (stereo not drawn) (Cbz-Gly-[ξF]-OH)
T/C [15]: 105 % of control
T/C [16]: 100 % of control
T/C [17]: 104 % of control

CC(=O)/C=C/c1ccc(OC(=O)/C=C/c2ccccc2)cc1
T/C [6]: 101 % of control
T/C [7]: 100 % of control
T/C [14]: 98 % of control

Cc1ccc(-n2c(-c3ccc(-n4c(C)nc5ccc(Br)cc5c4=O)cc3)n[nH]c2=S)cc1
T/C (dose: 100.0 mg/kg/injection, schedule: Q04DX002 (ip), vehicle: Klucel (hydroxypropylcellulose) (HPC)): 98 % of control
T/C (dose: 200.0 mg/kg/injection, schedule: Q04DX002 (ip), vehicle: Klucel (hydroxypropylcellulose) (HPC)): 106 % of control
T/C (dose: 400.0 mg/kg/injection, schedule: Q04DX002 (ip), vehicle: Klucel (hydroxypropylcellulose) (HPC)): 100 % of control

CCC(C)C(=O)OC1C(=O)OC2CC3C(C)=CC(=O)C(O)C3(C)C3C4(O)OCC23C1C(C)C4O (configuration not stated)
T/C (dose: 2.0 mg/kg/injection, schedule: Q01DX009 (ip), vehicle: saline): 96 % of control

O=C1CSC(c2cccc(F)c2)N1CCN1C(=O)CSC1c1cccc(F)c1 (configuration not stated)
T/C [6]: 95 % of control
T/C [7]: 98 % of control
T/C [14]: 106 % of control

O=S1(=O)CC(c2ccccc2)(N2CCOCC2)C1
T/C [3]: 94 % of control
T/C [4]: 96 % of control
T/C [5]: 105 % of control

CN(C)CCCNc1cc(/C=C/c2cccc3ccccc23)nc2ccccc12
T/C [18]: 91 % of control
T/C [19]: 92 % of control
T/C [20]: 92 % of control

CSC1=NN(C(C)=O)C(c2ccc3ccccc3n2)S1 (configuration not stated)
T/C [15]: 95 % of control
T/C [16]: 89 % of control
T/C [17]: 99 % of control

CCCCCCN(CCCCCC)CC(O)c1ccc(Cl)c2ccccc12 (configuration not stated)
T/C [6]: 115 % of control
T/C [7]: 101 % of control
T/C [14]: 92 % of control

Cc1nc(C(=O)c2ccccc2)cnc1-c1ccccc1
T/C [21]: 92 % of control
T/C [22]: 88 % of control
T/C [23]: 91 % of control

CCOC(=O)C[P+](c1ccccc1)(c1ccccc1)c1ccccc1
T/C (dose: 3.3 mg/kg/injection, schedule: Q01DX009 (ip), vehicle: saline sonified): 95 % of control
T/C (dose: 6.25 mg/kg/injection, schedule: Q01DX009 (ip), vehicle: saline sonified): 90 % of control
T/C (dose: 12.5 mg/kg/injection, schedule: Q01DX009 (ip), vehicle: saline sonified): 100 % of control
T/C (dose: 25.0 mg/kg/injection, schedule: Q01DX009 (ip), vehicle: saline sonified): 100 % of control

CC1=CC2N(C=C1)C(c1cccc([N+](=O)[O-])c1)=NON2c1cc(C)ccn1 (configuration not stated)
T/C [6]: 91 % of control
T/C [7]: 87 % of control and 89 % of control
T/C [14]: 87 % of control and 90 % of control

CC(=O)Nc1nnc(-c2coc3ccccc3c2=O)s1
T/C [11]: 91 % of control
T/C [12]: 91 % of control

COc1cc(C(=O)N2C3C4CCC(C)(OC4(C)C)C32)cc(OC)c1OC (configuration not stated)
T/C [15]: 95 % of control
T/C [16]: 97 % of control
T/C [17]: 94 % of control

CC(=O)NCC[N+](C)(C)C
T/C [18]: 100 % of control
T/C [19]: 108 % of control
T/C [20]: 99 % of control

Cc1cc(C)nc(NC(=O)Nc2cc(Cl)ccc2C)c1
T/C [21]: 88 % of control
T/C [22]: 86 % of control
T/C [23]: 89 % of control

C=CC(=O)OC1CC(O)C2(C)CC3C(=C)C(=O)OC3CC(C)C12 (configuration not stated)
T/C [8]: 107 % of control
T/C [9]: 110 % of control
T/C [10]: 109 % of control

CCC1COC(Nc2cccc3c2CCCC3)=N1 (configuration not stated)
T/C (dose: 100.0 mg/kg/injection, schedule: Q01DX001 (ip), vehicle: saline with Tween-80): 95 % of control
T/C (dose: 200.0 mg/kg/injection, schedule: Q01DX001 (ip), vehicle: saline with Tween-80): 90 % of control

Source: PubChem BioAssay AID330 (DTP/NCI, 2004)
